Results published in patent publication US20120196766A1, “Therapeutic Use of Farnesyltransferase Inhibitors and Methods of Monitoring the Efficacy Thereof” (priority 2004, published 2012).

What was measured:
[1] = tested on: THP-1 cells; assay: cDNA microarray analysis of LPS-induced gene transcription in THP-1 cells; type: cell-based, Human
Method: THP-1 cells were cultured in RPMI1640 medium, supplemented with 10% FBS/100 units/ml Penicillin/10 μg/ml Streptomycin at 37° C., under 5% CO2. […] For the untreated control group (no LPS, no compound) and LPS alone group, equivalent volumes of DMSO were added to the medium. Cells were cultured at 37° C. and pellets were collected at 0 hr, 1 hr, 3 hr, 6 hr, 12 hr & 24 hr. Cell pellets were stored at −80° C. if RNA isolation was not conducted immediately. For experiments to study cytokine secretion in culture supernatants, THP-1 cells were washed twice with PBS, resuspended at 3.4×10^5/ml and cultured in 96-well plates at 250 μL, per well at 37° C. […] Supernatants were collected at different time points as indicated in the figures and were kept at ≦−20° C. until analysis of cytokine production.
Total RNA was isolated using RNeasy mini kit from QIAGEN (Valencia, Calif.) according to the manufacturer's instructions. RNA samples were stored at −80° C.
Five μg of total RNA was linearly amplified to double-stranded cDNA using T7-based amplification. The cDNA was purified using the QIAquick 96 PCR purification kit (QIAGEN Valencia, Calif.), and used to generate amplified (a) RNA using AmpliScribe™ T7 High Yield Transcription Kit (Epicentre, Madison, Wis.). Ten μg of purified aRNA was reverse transcribed to cDNA using the SuperScript RTII kit (Invitrogen) and labeled by direct incorporation of Cy3-dCTP. The generated cDNA probe was used for hybridizing to cDNA microarrays.
Each clone was spotted in duplicate on the array.

[2] = cited from earlier work
[3] = tested on: cachexia; conditions: US 2004/0157773, WO 02/085364; cited from earlier work
[4] = LPS 100 ng/ml, tipifarnib 5 μM, 3 hr
[5] = LPS 100 ng/ml, tipifarnib 5 μM, 6 hr
[6] = LPS 100 ng/ml, tipifarnib 5 μM, 12 hr
[7] = LPS 100 ng/ml, tipifarnib 5 μM, 24 hr

Cn1cncc1C(N)(c1ccc(Cl)cc1)c1ccc2c(c1)c(-c1cccc(Cl)c1)cc(=O)n2C (single isomer, unassigned; (+)) [tipifarnib, (+)-6-[amino(4-chlorophenyl)(1-methyl-1H-imidazol-5-yl)methyl]-4-(3-chlorophenyl)-1-methyl-2(1H)-quinolinone]
1.23: Fold-change (tipifarnib/LPS vs LPS) CCL3 [1, 6] | Fold-change (tipifarnib/LPS vs LPS) IER3 [1, 7]
34: number of LPS-induced transcripts downregulated ([1]; out of 121 genes with at least […] induction by LPS at 2 time points, at least […] decrease at one or more time points)
approximately 2 μM: plasma levels ([2]; at 300 mg twice a day (Karp, Lancet et al. 2001))
1.15: Fold-change (tipifarnib/LPS vs LPS) TAP1 [1, 4] | Fold-change (tipifarnib/LPS vs LPS) IER3 [1, 5] | Fold-change (tipifarnib/LPS vs LPS) LY6E [1, 6] | Fold-change (tipifarnib/LPS vs LPS) B2M [1, 7] | Fold-change (tipifarnib/LPS vs LPS) TIMP3 [1, 7]
1.00: Fold-change (tipifarnib/LPS vs LPS) TRIM22 [1, 4] | Fold-change (tipifarnib/LPS vs LPS) IGFBP3 [1, 5] | Fold-change (tipifarnib/LPS vs LPS) IER3 [1, 6] | Fold-change (tipifarnib/LPS vs LPS) KCNK17 [1, 6] | Fold-change (tipifarnib/LPS vs LPS) STAT1 [1, 6]
−1.23: Fold-change (tipifarnib/LPS vs LPS) B2M [1, 5] | Fold-change (tipifarnib/LPS vs LPS) C3AR1 [1, 5] | Fold-change (tipifarnib/LPS vs LPS) TIMP3 [1, 5] | Fold-change (tipifarnib/LPS vs LPS) ABCB8 [1, 6] | Fold-change (tipifarnib/LPS vs LPS) IFI16 [1, 6] | Fold-change (tipifarnib/LPS vs LPS) LAP3 [1, 6] | Fold-change (tipifarnib/LPS vs LPS) MYD88 [1, 6] | Fold-change (tipifarnib/LPS vs LPS) ABCB8 [1, 7] | Fold-change (tipifarnib/LPS vs LPS) CCND1 [1, 7] | Fold-change (tipifarnib/LPS vs LPS) IL1B [1, 7] | Fold-change (tipifarnib/LPS vs LPS) TAP1 [1, 7] | Fold-change (tipifarnib/LPS vs LPS) TAP2 [1, 7]
−1.07: Fold-change (tipifarnib/LPS vs LPS) UBE2L6 [1, 4] | Fold-change (tipifarnib/LPS vs LPS) CCL3 [1, 5] | Fold-change (tipifarnib/LPS vs LPS) NFKB2 [1, 5] | Fold-change (tipifarnib/LPS vs LPS) S100A9 [1, 5] | Fold-change (tipifarnib/LPS vs LPS) TRIM22 [1, 6] | Fold-change (tipifarnib/LPS vs LPS) IL8 [1, 7]
−1.32: Fold-change (tipifarnib/LPS vs LPS) IFI16 [1, 5] | Fold-change (tipifarnib/LPS vs LPS) KCNK17 [1, 5] | Fold-change (tipifarnib/LPS vs LPS) PTX3 [1, 5] | Fold-change (tipifarnib/LPS vs LPS) IFIT1 [1, 6] | Fold-change (tipifarnib/LPS vs LPS) NFKB2 [1, 6] | Fold-change (tipifarnib/LPS vs LPS) PTX3 [1, 6] | Fold-change (tipifarnib/LPS vs LPS) TAP2 [1, 6] | Fold-change (tipifarnib/LPS vs LPS) LY6E [1, 7] | Fold-change (tipifarnib/LPS vs LPS) MX1 [1, 7] | Fold-change (tipifarnib/LPS vs LPS) MYD88 [1, 7]
inhibition: cachexia [3]
1.32: Fold-change (tipifarnib/LPS vs LPS) IL8 [1, 6] | Fold-change (tipifarnib/LPS vs LPS) MX1 [1, 6]
−1.41: Fold-change (tipifarnib/LPS vs LPS) TIMP3 [1, 4] | Fold-change (tipifarnib/LPS vs LPS) IFIT1 [1, 5] | Fold-change (tipifarnib/LPS vs LPS) LGR7 [1, 5] | Fold-change (tipifarnib/LPS vs LPS) MMP9 [1, 5] | Fold-change (tipifarnib/LPS vs LPS) NEXN [1, 5] | Fold-change (tipifarnib/LPS vs LPS) UBE2L6 [1, 5] | Fold-change (tipifarnib/LPS vs LPS) GNPNAT1 [1, 6] | Fold-change (tipifarnib/LPS vs LPS) MMP9 [1, 7] | Fold-change (tipifarnib/LPS vs LPS) UBE2L6 [1, 7]
1.07: Fold-change (tipifarnib/LPS vs LPS) CCL4 [1, 5]
−1.15: Fold-change (tipifarnib/LPS vs LPS) TAP2 [1, 4] | Fold-change (tipifarnib/LPS vs LPS) CCND1 [1, 5] | Fold-change (tipifarnib/LPS vs LPS) IL8 [1, 5] | Fold-change (tipifarnib/LPS vs LPS) IL1RN [1, 6] | Fold-change (tipifarnib/LPS vs LPS) NEXN [1, 6] | Fold-change (tipifarnib/LPS vs LPS) TAP1 [1, 6] | Fold-change (tipifarnib/LPS vs LPS) TIMP3 [1, 6] | Fold-change (tipifarnib/LPS vs LPS) UBE2L6 [1, 6]
300 mg twice a day: maximum tolerated dose ([2]; in a number of studies (Head and Johnston 2003))
